Assay results: patent US8093273B2, “Flavanoids and isoflavanoids for the prevention and treatment of cardiovascular diseases” (Resverlogix Corp., priority 2004, dated 2012)

What was measured:
Caco-2 permeability = assay type: in vitro ADME, human; conditions: human, Caco-2
From the text: The Caco-2 cell drug transport model is widely used for screening compounds in drug discovery to assess intestinal transport and predict absorption rates.

human ApoA-I promoter [1] = test: ApoA-I promoter induction in Caco-2 intestinal cells (pAI.474-Luc luciferase reporter); assay type: cell-based; conditions: Caco-2 cells, 15 μM, 48 hours incubation, luciferase activity vs control samples
Method in brief: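 Caco-2 cells stably carrying the human ApoA-I promoter–firefly luciferase construct (pAI.474-Luc) were starved 24 h in 0.5% FBS medium, then exposed to compound at 0 to 100 μM final for 48 h at 37° C. Luciferase activity in lysates was normalized to Bradford protein and compared with solvent-only and untreated controls.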

ApoA-I protein = ApoA-I protein expression in HepG2 cells (ELISA of conditioned media); assay type: cell-based, human; conditions: 7.5 μM
Procedure: This study confirmed that compounds of the invention have an effect on ApoA-I protein secretion in HepG2 (liver) cells by measuring whether stimulation of transcriptional activity of the endogenous ApoA-I promoter in the HepG2 cells increased the abundance and secretion of ApoA-I protein.
The HepG2 cell line was obtained from the ATCC and cultured in MEM media supplemented with 10% FBS (Gibco), with 1 mM sodium pyruvate, 0.1 mM MEM non-essential amino acid, 2 mM L-glutamine, 100 U/ml penicillin, 100 μg/ml streptomycin and 5 μg/ml plasmocin. Cells were maintained at 37° C. in an atmosphere of 5% CO2 Cells were grown to 85% confluency prior to initiating the experiment.
Cells were plated and allowed to adhere overnight in a phenol red-free DMEM containing 10% of Charcoal/Dextran treated FBS (Hyclone), with 1 mM sodium pyruvate, 0.1 mM MEM non-essential amino acid, 2 mM L-glutamine, 100 U/ml penicillin, 100 μg/ml streptomycin and 5 μg/ml plasmocin. The medium was removed, and cells were washed in 1×PBS. Cells were then starved in phenol red-free DMEM (serum free) for a period of 24 hours. Cells were then mock treated (untreated, DMSO), or treated with compound of the invention diluted in phenol red-free DMEM (serum free) media at a concentration of 7.5 μM. Cells and media were harvested at 0, 6 and 24 hours following compound treatment.
Medium was removed from cells at the desired times and applied to a solid phase capture sandwich in an ELISA assay according to manufacturer's instructions (Total human Apolipoprotein ELISA Assay-Alercheck).

human ApoA-I promoter [2] = test: ApoA-I promoter induction in HepG2 liver cells (pAI.474-Luc luciferase reporter); assay type: cell-based; conditions: average values at 15 μM, 48 hours incubation
Method in brief: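 HepG2 stably transfected with pAI.474-Luc, starved 24 h in MEM + 0.5% FBS, then treated with compounds at final 0–100 μM for 48 h. Luciferase activity in lysates, normalized to Bradford protein.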

- Papp (Caco-2 permeability): 6.36 ×10⁻⁶ cm/s
SMILES: O=c1cc(-c2ccc(O)cc2)oc2ncccc12 [Example 34, 2-(4-Hydroxy-phenyl)-pyrano[2,3-b]pyridin-4-one]
- ApoA-I Promoter Induction (human ApoA-I promoter [1]): increased
- ApoA-I content in the medium (ELISA) (ApoA-I protein; 6 and 24 hours, vs untreated cells and cells treated with solvent): increased significantly
- time after addition of compound at which ApoA-I levels in the medium start to increase (ApoA-I protein; time course 0, 6, 24 hours): ~6 h
- ApoA-I Promoter Induction (human ApoA-I promoter [2]): increased
